Results reported in patent EP4782453A1 (Beyang Therapeutics Co., Ltd., priority 2023, dated 2025).
Read-outs that look alike come from different tables or passages of the source.

Molecular target: T1, Menin-MLL (Homo sapiens, UniProt O00255)
T1 construct: His-Menin (M1-L615 end); purchased BIORTUS BP9210
T1 sequence (O00255 1-615 isoform O00255-1): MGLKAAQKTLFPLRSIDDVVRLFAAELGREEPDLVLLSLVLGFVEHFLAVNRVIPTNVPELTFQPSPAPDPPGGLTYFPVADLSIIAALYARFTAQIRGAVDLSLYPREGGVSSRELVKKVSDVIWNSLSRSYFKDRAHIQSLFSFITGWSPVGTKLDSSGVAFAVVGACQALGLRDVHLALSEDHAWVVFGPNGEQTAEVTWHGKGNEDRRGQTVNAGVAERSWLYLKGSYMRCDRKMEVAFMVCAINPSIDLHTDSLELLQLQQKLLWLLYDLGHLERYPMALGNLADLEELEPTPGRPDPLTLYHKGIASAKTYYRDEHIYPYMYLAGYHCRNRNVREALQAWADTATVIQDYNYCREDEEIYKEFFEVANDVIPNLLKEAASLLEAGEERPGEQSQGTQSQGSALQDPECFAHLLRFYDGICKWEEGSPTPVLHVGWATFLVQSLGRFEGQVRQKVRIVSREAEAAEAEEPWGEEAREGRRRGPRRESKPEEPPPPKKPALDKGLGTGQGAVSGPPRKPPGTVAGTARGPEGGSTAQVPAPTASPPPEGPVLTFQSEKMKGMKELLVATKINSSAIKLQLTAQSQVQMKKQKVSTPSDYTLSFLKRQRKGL
Assay: Inhibitory activity against Menin-MLL binding (fluorescence polarization)
Conditions: 150 nM His-Menin, 15 nM FITC-MLL, 25°C for 60 min
Method: • His-Menin (M1-L615 end), purchased from BIORTUS, Catalog Number: BP9210; and • FITC-MLL4-43, purchased from GenScript, Catalog Number: C491HFF190-3/PE1324.
In a 10 µL reaction solution (20 mM HEPES, pH 7.5, 50 mM NaCl, 1 mM DTT, 0.01% BSA) containing any compound from the examples, 150 nM His-Menin was added to a 384-well plate (Corning, Model: 4514). Each concentration was set up in duplicate wells. After centrifugation at 1000 RPM for 1 min, the plate was incubated at 25°C for 15 min. Then, 15 nM […] (20 mM HEPES, pH 7.5, 50 mM NaCl, 1 mM DTT, 0.01% BSA) was added to a 384-well plate. After centrifugation at 1000 RPM for 1 min, the reaction proceeded at 25°C for 60 min. Changes in fluorescence polarization were measured using a plate reader (PerkinElmer, Envision 2104). Based on the measured signals, the binding inhibition rate of the compound at each concentration was calculated, and the IC50 (half-maximal inhibitory concentration) of the compound was determined using statistical analysis software GraphPad Prism (GraphPad Software, Inc.) by means of a nonlinear fitting formula: 4-Parameter Logistic Model or Sigmoidal Dose-Response Model: Y = Bottom + (Top−Bottom)/(1 + 10^((LogIC50−X) × Hill Slope)), [formula] in which X indicates the logarithm of compound concentration, Y indicates a fluorescence polarization mP value, and Top and Bottom indicate the maximum and minimum readouts of fluorescence polarization mP values. Table 1: Inhibitory Activity of Compounds Against Menin-MLL Binding

[1] = fluorescence polarization, read-out: Menin-MLL IC50
[2] = Menin-MLL IC50, fluorescence polarization

| SMILES | IC50 [1] | IC50 [2] |
| --- | --- | --- |
| CCN(C(=O)c1cc(F)ccc1-c1cc(C2CN(C(COC)C(C)C)C2)cn2c(C)ncc12)C(C)C (stereo not drawn) [Example 414, N-ethyl-5-fluoro-2-{6-[1-(1-methoxy-3-methylbutan-2-yl)azacyclobutan-3-yl]-3-methylimidazo[1,5-a]pyridin-8-yl}-N-(isopropyl)benzamide] | 11.8 nM |  |
| Cc1nc(F)c2c(-c3ccc(F)cc3C(=O)N3CCOC[C@H]3C)cc(C3CN(CC4CCN(C(=O)N(C)C)CC4)C3)cn12 [Example 246] | 73 nM |  |
| CC(=O)N1CCN(CCC[C@H](C(C)C)N2CC(c3cc(-c4ccc(F)cc4C(=O)N4CCOC[C@H]4C)c4c(F)nc(C)n4c3)C2)CC1(C)C [Example 339] | 13 nM |  |
| CC(=O)N1C2CC1CN(CCC[C@H](C(C)C)N1CC(c3cc(-c4ccc(F)cc4C(=O)N4CCOC[C@H]4C)c4c(F)nc(C)n4c3)C1)C2 [Example 345] | 18 nM |  |
| CCN(C(=O)c1cc(F)ccc1-c1cc([C@@H]2CCN(C[C@H]3CC[C@H](NS(=O)(=O)CC)CC3)C2)nc2c1cnn2C)C(C)C [Example 11-1] |  | 744 nM |
| CCN(C(=O)c1cc(F)ccc1-c1cc(N2CCN(C(=O)C3NCCc4ccccc43)CC2)cn2c(C)nc(Cl)c12)C(C)C (stereo not drawn) [Example 122] | 217 nM |  |
| CCN(C(=O)c1cc(F)ccc1-c1cc(C2CCN(C[C@H]3CC[C@H](NS(=O)(=O)CC)CC3)CC2)nn2c(C)ncc12)C(C)C [Example 136, N-ethyl-5-fluoro-2-[7-methyl-2-(1-{[(1r,4r)-4-ethanesulfonamidocyclohexyl]methyl}piperidin-4-yl)imidazo[1,5-b]pyridazin-4-yl]-N-(isopropyl)benzamide] |  | 129 nM |
| CCN(C(=O)c1cc(F)ccc1-c1cc(C2CN([C@@H](CN3CCS(=O)(=O)CC3)C(C)C)C2)cn2c(C)ncc12)C(C)C [Example 441-2, 2-(6-{1-[(2R)-1-(1,1-dioxo-thiomorpholin-4-yl)-3-methylbutan-2-yl]azacyclobutan-3-yl}-3-methylimidazo[1,5-a]pyridin-8-yl)-N-ethyl-5-fluoro-N-(isopropyl)benzamide] | 110 nM |  |
| C[C@@H]1COCCN1C(=O)c1cc(F)ccc1-c1cc(C2CN(CC3CCN(C(=O)CC#N)CC3)C2)cc2c1cnn2C [Example 173] | 118 nM |  |
| CCN(C(=O)c1cc(F)ccc1-c1cc(C2(F)CCN(C[C@H]3CC[C@H](NS(=O)(=O)CC)CC3)C2)cc2c1cnn2C)C(C)C (stereo partly drawn) [Compound 61, N-ethyl-5-fluoro-2-[6-(3-fluoro-1-{[(1r,4r)-4-ethanesulfonamidocyclohexyl]methyl}pyrrolidin-3-yl)-1-methyl-1H-indazol-4-yl]-N-(isopropyl)benzamide] |  | 58 nM |
| CCN(C(=O)c1cc(F)ccc1-c1cc(C2CCN(C(=O)[C@H]3N[C@@H]4CC[C@H]3C4)C2)cc2c1cnn2C)C(C)C (stereo partly drawn) [Example 31, 2-(6-{1-[(1R,3S,4S)-2-azabicyclo[2.2.1]heptan-3-carbonyl]pyrrolidin-3-yl}-1-methyl-1H-indazol-4-yl)-N-ethyl-5-fluoro-N-(isopropyl)benzamide] | 275 nM |  |
| CC(C)CS(=O)(=O)N1CCC(CN2CC(c3cc(-c4ccc(F)cc4C(=O)N4CCOC[C@H]4C)c4cnn(C)c4c3)C2)CC1 [Example 176] | 424 nM |  |
| Cc1nc(F)c2c(-c3ccc(F)cc3C(=O)N3CCOC[C@H]3C)cc(C3CN([C@H](CCCN4CCOCC4)C(C)C)C3)cn12 [Example 199-1, (3R)-4-[5-fluoro-2-(1-fluoro-3-methyl-6-{1-[(3R)-2-methyl-6-(morpholin-4-yl)hexan-3-yl]azacyclobutan-3-yl}imidazo[1,5-a]pyridin-8-yl)benzoyl]-3-methylmorpholine] | 26 nM |  |
| Cc1nc(F)c2c(-c3ccc(F)cc3C(=O)N3CCOC[C@H]3C)cc(C3CN([C@@H](C)C4CCN(C(=O)C(F)F)CC4)C3)cn12 [Example 300] | 24 nM |  |
| CCN(C(=O)c1cc(F)ccc1-c1cc(C2CN([C@H](CCCN3CCC[C@H](O)C3)C(C)C)C2)cn2c(C)ncc12)C(C)C [Example 327] | 1.8 nM |  |
| CC(C)N(CC(F)F)C(=O)c1cc(F)ccc1-c1cc([C@H]2CCN(CCN3CCC(NC(=O)OC(C)(C)C)CC3)C2)cc2c1cnn2C [Example 166-2, N-(1-{2-[(3R)-3-(4-{2-[(2,2-difluoroethyl)(isopropyl)aminoformyl]-4-fluorophenyl}-1-methyl-1H-indazol-6-yl)pyrrolidin-1-yl]ethyl}piperidin-4-yl)tert-butyl carbamate] | 248 nM |  |
| CCN(C(=O)c1cc(F)ccc1-c1cc(C2CN([C@H](CN3CCN(CCF)CC3)C(C)C)C2)cc2c1cnn2C)C(C)C [Example 424, N-ethyl-5-fluoro-2-(6-{1-[(2S)-1-[4-(2-fluoroethyl)piperazin-1-yl]-3-methylbutan-2-yl]azacyclobutan-3-yl}-1-methyl-1H-indazol-4-yl)-N-(isopropyl)benzamide] | 78 nM |  |
| CCN(C(=O)c1cc(F)ccc1-c1cc(C2CCN(CC3CCN(c4nnc(C)o4)CC3)C2)cn2cncc12)C(C)C (stereo not drawn) [Example 46] | 62.5 nM |  |
| CC(=O)N1CCN(CCC[C@H](C(C)C)N2CC(c3cc(-c4ccc(F)cc4C(=O)N4CCOC[C@H]4C)c4c(F)nc(C)n4c3)C2)[C@H](C)C1 [Example 328] | 16 nM |  |
| CCN(C(=O)c1cc(F)ccc1-c1cc(C2CN(C(CO)C(C)C)C2)cn2c(C)ncc12)C(C)C (stereo not drawn) [Example 421, N-ethyl-5-fluoro-2-{6-[1-(1-hydroxyl-3-methylbutan-2-yl)azacyclobutan-3-yl]-3-methylimidazo[1,5-a]pyridin-8-yl}-N-(isopropyl)benzamide] | 14 nM |  |
| Cc1nc(F)c2c(-c3ccc(F)cc3C(=O)N3CCOC[C@H]3C)cc(C3CN(CC4(O)CCOCC4)C3)cn12 [Example 239] | 199 nM |  |
| CCN(C(=O)c1cc(F)ccc1-c1cc(C2CCN(C[C@]3(O)CC[C@@H](NC(=O)OC(C)(C)C)CC3)C2)cc2c1cnn2C)C(C)C (stereo partly drawn) [Compound 54, N-[(1s,4s)-4-{[3-(4-{2-[ethyl(isopropyl)aminoformyl]-4-fluorophenyl}-1-methyl-1H-indazol-6-yl)pyrrolidin-1-yl]methyl}-4-hydroxylcyclohexyl]tert-butyl carbamate] | 105 nM |  |
| CC(=O)N1CC2CC(C1)N2CCC[C@H](C(C)C)N1CC(c2cc(-c3ccc(F)cc3C(=O)N3CCOC[C@H]3C)c3cnn(C)c3c2)C1 [Example 386] | 20 nM |  |
| CCS(=O)(=O)NC1CCC(CN2CC(c3cc(-c4ccc(F)cc4C(=O)N(CC(F)F)C(C)C)c4cnccn34)C2)CC1 (stereo not drawn) [Example 143, N-(2,2-difluoroethyl)-2-(6-{1-[(4-ethanesulfonamidocyclohexyl)methyl]azacyclobutan-3-yl}pyrrolo[1,2-a]pyrazin-8-yl)-5-fluoro-N-(isopropyl)benzamide] | 2.7 nM |  |
| CCCC(=O)N1CCC(C(C)N2CC(c3cc(-c4ccc(F)cc4C(=O)N4CCOC[C@H]4C)c4cnc(C)n4c3)C2)CC1 (stereo partly drawn) [Example 320] | 12 nM |  |
| Cc1cncc2c(-c3ccc(F)cc3C(=O)N(C)C(C)C)cc(CC3CN([C@@H](CCCN4CCN(CCO)CC4)C(C)C)C3)n12 [Example 477-2, 5-fluoro-2-[6-({1-[(3S)-6-[4-(2-hydroxylethyl)piperazin-1-yl]-2-methylhexan-3-yl]azacyclobutan-3-yl}methyl)-4-methylpyrrolo[1,2-a]pyrazin-8-yl]-N-methyl-N-(isopropyl)benzamide] | 27 nM |  |
| CC(=O)N1CCC(CN2CC(c3cc(-c4ccc(F)cc4C(=O)N4CCOC[C@H]4C)c4cnn(C)c4c3)C2)CC1 [Example 177] | 217 nM |  |
